Legend:
[1] = cited from earlier work
[2] = system: AhR; conditions: cited from earlier work
[3] = system: human T cells cocultured with moDCs; experiment: Human mixed lymphocyte reaction; format: cell-based; conditions: LPS and IFN-γ-matured moDCs, 3 days, 1 nM–1 µM
[4] = system: coculture of H1299 NSCLC cells, primary human PBMCs, and primary human fibroblasts; experiment: BioMAP Oncology Panel; format: cell-based; conditions: 0.37, 1.1, or 3.3 µM, 48 hours

Structure (SMILES): Cc1ccccc1N=Nc1ccc(NC(=O)c2ccnn2C)c(C)c1 [CH-223191]
- AhR-independent activities [1]: AhR-independent proproliferative activities

Structure (SMILES): CC(C)n1cnc2c(NCCc3ccc(O)cc3)nc(-c3csc4ccccc34)nc21 [SR1]
- Mouse cross-reactivity [2]: not mouse cross-reactive

Structure (SMILES): NS(=O)(=O)NCCNc1nonc1C(=NO)Nc1ccc(F)c(Br)c1 [epacadostat]
- IL-2 production from T cells (MLR) [3]: no effect
- Cytokine production (IFN-γ, IL-17, IL-2, IL-6, TNF-α) [4]: predominantly anti-inflammatory responses with decreases in IFN-γ, IL-2, IL-6, and IL-17
